Each structure is given as a SMILES string.

By EC50 is commonly meant the midpoint of the concentration-response curve.

In this assay the target is mouse β3-adrenergic receptor (mβ3-AR) (Mus musculus, UniProt P25962). Put plainly: cAMP accumulation. It counts as cell-based. (cAMP levels reflect the balance of adenylyl cyclase and phosphodiesterase activity.)
mouse β3-adrenergic receptor (mβ3-AR), sequence (P25962 whole entry): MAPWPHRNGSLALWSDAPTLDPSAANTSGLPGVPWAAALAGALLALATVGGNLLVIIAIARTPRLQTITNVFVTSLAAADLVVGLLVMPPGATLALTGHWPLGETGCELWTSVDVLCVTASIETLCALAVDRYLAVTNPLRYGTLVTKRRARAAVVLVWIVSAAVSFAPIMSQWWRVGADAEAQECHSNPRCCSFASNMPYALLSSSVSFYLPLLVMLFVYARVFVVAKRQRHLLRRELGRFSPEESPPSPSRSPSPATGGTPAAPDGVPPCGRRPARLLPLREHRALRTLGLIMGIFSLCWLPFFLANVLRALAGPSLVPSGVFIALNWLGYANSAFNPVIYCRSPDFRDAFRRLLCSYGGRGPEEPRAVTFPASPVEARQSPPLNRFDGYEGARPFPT

`C[C@H](Cc1ccc(OCC(=O)O)cc1)NC[C@H](O)c1cccc(Cl)c1` [compound 3, BRL37344] showed an EC50 of 0.692 nM.

The values above are taken from PMC9400856 (Molecular Informatics, 2022).
